Measurements from paper PMC7708037, “Targeting OGG1 arrests cancer cell proliferation by inducing replication stress” (Nucleic Acids Research, 2020).

Columns and labels:
[1] = system: Hematological cancer cell lines; test: Resazurin viability, cell line panel; type: cell-based; details: read-out: EC50, average over cell lines
Method: (§1) Cells were seeded in 96- or 384-well plates and incubated for 3 days for combination experiments or 5 days for single-drug exposure experiments. Resazurin (R7017, SigmaAldrich) was added to a final concentration of 0.01 mg/ml resazurin and fluorescence was measured at ex530/em590 after incubation for 2, 4 or 6 h. Curves were fitted using XLfit software (IDBS) or Prism 8.0 (Graphpad Software), and EC50 values were determined.
(§2) Figure 3. The OGG1 inhibitor TH5487 is selectively toxic to oncogene-expressing cells and cancer cell lines. (A) Close-up view of ligand TH5487 (green) binding to human OGG1. Important residues in the binding site are marked, hydrogen bond interactions are shown in black dashed line, water (red sphere)-mediated interactions in grey dashed line. (B) Comparison between the binding of ligand TH5487 (green) to human OGG1 (gray) with the structure of TH5675 (pink) bound to mouse OGG1 (yellow, PDB 6G3Y). (C) Viability of BJ-Tert and BJ-Ras cells exposed to the indicated concentrations TH5487 for five days. Data are average ±SD of four technical replicates from two independent experiments. (D) Clonogenic survival of cell lines exposed to TH5487. The cancer cell lines ACHN and H460, and the non-transformed cell lines MRC5 and Ogg1^−/− mouse embryonic fibroblasts (MEF) were incubated for 6–11 days in the presence of the indicated concentrations TH5487, followed by colony enumeration. Data are average ±SD values of four technical replicates, representative of three independent experiments. (E) TH5487 selectively decreases viability of cancer cell lines. EC50-values of 34 cancer (red) and 7 non-transformed cell lines (blue). Cells were exposed to a dilution series of TH5487 for five days followed by a viability assessment using resazurin. All cell lines were tested in two to ten independent experiments. Each point represents the EC50-value from one experiment (average of two or three technical replicates). (F) Comparative analysis of EC50 values for TH5487 in cancer- and non-transformed cell lines, and CD34+ hematopoietic stem cells, CD34- fraction from cord blood or PBMCs from healthy donor blood. All primary blood cells were tested upon activation with Dynabeads/Phytohemagglutinin or not and exposed to a dilution series of TH5487 to calculate EC50 values by resazurin assay.

cancer cell lines = test: Resazurin viability, cell line panel; type: cell-based
Method: as §1, §2

[2] = system: non-transformed cell lines; test: Resazurin viability, cell line panel; type: cell-based; details: Figure 3F, read-out: EC50 (loss of proliferation), average over cell lines
Method: as §1, §2

A3 OGG1-shRNA cells = test: Off-target evaluation in OGG1 knockdown A3 cells; type: cell-based, human
Method: Figure 4. Anticancer properties overlap between OGG1 loss and OGG1 inhibitors. (A) Viability of T-cell acute […] leukemia cell lines treated for 5 days with the indicated doses TH5487. Data are average ±SD of independent experiments (A3, n = 5; Jurkat, n = 3; MOLT-4, n = 4; CCRF-CEM, n = 3). (B) Relative cell numbers and (C) viability (%) for A3 cells treated for 5 days with 10 μM TH5487. Data are average ±SD of six replicates from three independent experiments. (D) Induction of apoptosis in A3 cells treated for 72 h TH5487 and stained for Annexin V. Data are average ±SD of three independent experiments. (E) A3 cells transfected with shRNA targeting OGG1 were treated with doxycycline for 6 days and stained for Annexin V. Data are average ±SD of two independent experiments. (F) Scheme for recovery experiment in which A3 OGG1-shRNA cells or A3 cells were silenced or inhibited for 6 days with doxycycline (200 nM) or TH5487 (10 μM). […] Statistical significance was determined using unpaired, two-sided t-tests (*P < 0.05, **P < 0.01, ***P < 0.001, ****P < 0.0001, ns, non-significant). […]
Statistical significance was determined using unpaired, two -sided T-tests (ns, non-significant, *, P<0.05, **, P<0.01, ***, P<0.001 and ****, P<0.0001) . […] D. Comparative bar graph with quantification from two independent Western blots. […]

Q: What does the source list for `O=C(Nc1ccc(I)cc1)N1CCC(n2c(=O)[nH]c3c(Br)cccc32)CC1` [TH5487]?
A: EC50 [1]: 14.7 ± 4.7 µM; Selectivity of growth inhibition, cancer vs non-transformed cell lines (cancer cell lines; large panel of cancer and non-transformed cell lines, 5 days): caused loss of viability in cancer cells while being better tolerated in non-transformed cell lines; EC50 (cancer cell lines; tested cancer cell lines, Figure 3F, read-out: EC50 (loss of proliferation), average over cell lines): 17.9 ± 6.9 µM; EC50 [2]: 36.9 ± 7.5 µM; Additional toxic effect in combination with doxycycline (A3 OGG1-shRNA cells; A3 sh2, 6 days): additional toxic effect; Additional toxic effect in OGG1 knockdown cells (A3 OGG1-shRNA cells; doxycycline 5 days, then additional 48 h with 10 μM): no significant additional toxic effect
